According to patent publication US11098056B2, “UDP glycosyltransferase inhibitors and methods of use” (GENZYME CORPORATION, priority 2018, dated 2021):

Target: T1, UGT8 (Homo sapiens, UniProt Q16880)
T1 construct: host or cells: OE19 cells
T1 sequence (Q16880 21-541): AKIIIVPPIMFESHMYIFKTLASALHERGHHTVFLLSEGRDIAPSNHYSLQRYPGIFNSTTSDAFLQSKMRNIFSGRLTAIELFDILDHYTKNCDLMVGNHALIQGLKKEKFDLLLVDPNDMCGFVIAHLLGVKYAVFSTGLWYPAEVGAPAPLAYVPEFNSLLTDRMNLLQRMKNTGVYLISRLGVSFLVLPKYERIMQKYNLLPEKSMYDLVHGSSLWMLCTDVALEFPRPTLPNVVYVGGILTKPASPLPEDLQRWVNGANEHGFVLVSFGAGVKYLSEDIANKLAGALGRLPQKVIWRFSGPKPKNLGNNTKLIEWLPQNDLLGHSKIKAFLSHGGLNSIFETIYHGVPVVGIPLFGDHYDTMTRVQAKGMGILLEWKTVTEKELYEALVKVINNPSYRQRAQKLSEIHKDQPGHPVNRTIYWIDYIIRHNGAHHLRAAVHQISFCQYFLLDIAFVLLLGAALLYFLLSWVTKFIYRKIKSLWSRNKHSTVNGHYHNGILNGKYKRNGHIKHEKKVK
Assay: In vitro sulfatide (SFT) synthesis inhibition in OE19 cells, LC-MS/MS readout
Format: cell-based
Conditions: 72 hr, sulfatide by LC-MS/MS, read-out: Potency range (IC50, In-vitro SFT)
Method: For medium throughput screening, library compounds were dispensed into CellBIND 384 well plates to a final concentration of 10 μM. OE19 cells (Sigma) were grown in to 70-90% confluency in RPMI 1640+L-glutamine and […]; were trypsinized to achieve suspension and were aliquoted at 2,500 cells/well, total well volume 50 μl. Plates were incubated 72 hr at 37° C. in 5% CO2; supernatant was removed and plates were dried, heat-sealed and stored at −20° C. until analysis.
For IC50 determinations, the same procedure was followed except that test compounds were added to the plate as dose-downs in triplicate to yield concentration response curves.
Mass Spectrometer Analysis of Sulfatide (SFT):
Assay plates were thawed and 85 μl mobile phase B (5 mM ammonium formate^+0.2% formic acid in 50:50 methanol:acetonitrile). Fifteen μl 20 ng/ml C17 SFT in mobile phase B was added as an internal standard.
SFT was analyzed using an Applied Biosystems API-4000 triple quad mass spectrometer interfaced to a Thermo Scientific Multiplex system (LX-4) equipped with four pumps. Chromatography of OE19 cell samples or 2B5-mouse cells treated with compounds was performed using a Waters Acquity UPLC BEH C8 2.1×50 mm column with 1.7 um particle size. The chromatography was performed using the following mobile phases. Mobile phase A (MPA): 0.2% formic acid and 5 mM ammonium formate in deionized water; MPB: see above. The LC method was run in isocratic mode for 4 sequentially running columns using 95% MPB and 5% MPA with flow rate of 1 ml/min and a column temperature of 60° C.
The Triple quad mass spectrometer was run in Negative Ionization mode monitoring the following MRM transitions and using the following parameters:
Electrospray voltage was […], and source temperature was 550° C.

**Q.** CNC(=O)c1csc2c(C(F)(F)F)cc(N3CC(NC(=O)OC(C)(C)C)C3)nc12 [Example 300, tert-Butyl (1-(3-(methylcarbamoyl)-7-(trifluoromethyl)thieno[3,2-b]pyridin-5-yl)azetidin-3-yl)carbamate] was tested. Which IC50 did it give?
**A.** < 0.1 µM

**Q.** With CNC(=O)c1csc2c(C(F)(F)F)cc(OC3CC4(C3)CN(C(=O)O[C@@H](C)COC(F)(F)F)C4)nc12 [Example 853, (S)-1-(Trifluoromethoxy)propan-2-yl 6-((3-(methylcarbamoyl)-7-(trifluoromethyl)thieno[3,2-b]pyridin-5-yl)oxy)-2-azaspiro[3.3]heptane-2-carboxylate] as the compound, how does the IC50 read?
**A.** < 0.1 µM

**Q.** For CNC(=O)c1csc2c(C(F)(F)F)cc(N3CCC(OC(=O)NCC4CN(C)CCO4)CC3)nc12 (centres unmarked) [Example 115, 1-(3-(Methylcarbamoyl)-7-(trifluoromethyl)thieno[3,2-b]pyridin-5-yl)piperidin-4-yl ((4-methylmorpholin-2-yl)methyl)carbamate], which IC50 is on record?
**A.** > 1 µM

**Q.** For CCNC(=O)c1csc2c(C3CC3)cc(N3CCN(CC(=O)NC(C)C)CC3)nc12 [Example 420, 7-Cyclopropyl-N-ethyl-5-(4-(2-(isopropylamino)-2-oxoethyl)piperazin-1-yl)thieno[3,2-b]pyridine-3-carboxamide], which IC50 is on record?
**A.** > 1 µM

**Q.** How did the IC50 turn out when CNC(=O)c1csc2c(C(F)(F)F)cc(OC3CC4COCC(C3)N4C(=O)OC(C)(C)C)nc12 (racemic) [Example 628, tert-Butyl (+/−)-endo7-((3-(methylcarbamoyl)-7-(trifluoromethyl)thieno[3,2-b]pyridin-5-yl)oxy)-3-oxa-9-azabicyclo[3.3.1]nonane-9-carboxylate] was run?
**A.** 0.1 to 1 µM

**Q.** Which IC50 does the source give for CNC(=O)c1csc2c(Cl)cc(N3CCC(OC(=O)NCC4CC4)CC3)nc12 [Example 449, 1-(7-Chloro-3-(methylcarbamoyl)thieno[3,2-b]pyridin-5-yl)piperidin-4-yl (cyclopropylmethyl)carbamate] here?
**A.** < 0.1 µM

**Q.** How did the IC50 turn out when CNC(=O)c1csc2c(C(F)(F)F)c(C)c(N3CCC(OC(=O)N[C@@H](C)C4CC4)CC3)nc12 [Example 151, 1-(6-Methyl-3-(methylcarbamoyl)-7-(trifluoromethyl)thieno[3,2-b]pyridin-5-yl)piperidin-4-yl (S)-(1-cyclopropylethyl)carbamate] was run?
**A.** < 0.1 µM

**Q.** Which IC50 does the source give for CNC(=O)c1csc2c(C(F)(F)F)cc(N3CCN(C(=O)OCC4CC4)CC3)nc12 [Example 780, Cyclopropylmethyl 4-(3-(methylcarbamoyl)-7-(trifluoromethyl)thieno[3,2-b]pyridin-5-yl)piperazine-1-carboxylate] here?
**A.** < 0.1 µM

**Q.** How did the IC50 turn out when CNC(=O)c1csc2c(C(F)(F)F)cc(CC3CCN(C(=O)OC(C)(C)C)CC3)nc12 [Example 634, tert-Butyl 4-((3-(methylcarbamoyl)-7-(trifluoromethyl)thieno[3,2-b]pyridin-5-yl)methyl)piperidine-1-carboxylate] was run?
**A.** 0.1 to 1 µM

**Q.** CCNC(=O)CN1CCN(c2cc(C(F)(F)F)c3scc(C(=O)NC)c3n2)CC1 [Example 25, 5-(4-(2-(Ethylamino)-2-oxoethyl)piperazin-1-yl)-N-methyl-7-(trifluoromethyl)thieno[3,2-b]pyridine-3-carboxamide] was tested. Which IC50 did it give?
**A.** 0.1 to 1 µM

**Q.** How did the IC50 turn out when CNC(=O)c1csc2c(C(F)(F)F)cc(OC3(C)CN(C(=O)OC(C)(C)C)C3)nc12 [Example 269, tert-Butyl 3-methyl-3-((3-(methylcarbamoyl)-7-(trifluoromethyl)thieno[3,2-b]pyridin-5-yl)oxy)azetidine-1-carboxylate] was run?
**A.** 0.1 to 1 µM

**Q.** For CNC(=O)c1csc2c(C(F)(F)F)c(C)c(O[C@H]3C[C@@H](NC(=O)OCC4CC4)C3)nc12 [Example 218, Cyclopropylmethyl ((1S,3S)-3-((6-methyl-3-(methylcarbamoyl)-7-(trifluoromethyl)thieno[3,2-b]pyridin-5-yl)oxy)cyclobutyl)carbamate], which IC50 is on record?
**A.** < 0.1 µM

**Q.** For CNC(=O)c1csc2c(C(F)(F)F)cc(N3CC[C@@H](OC(=O)NC(C)C)[C@H](F)C3)nc12 [Example 495, (3R,4R)-3-Fluoro-1-(3-(methylcarbamoyl)-7-(trifluoromethyl)thieno[3,2-b]pyridin-5-yl)piperidin-4-yl isopropylcarbamate], which IC50 is on record?
**A.** < 0.1 µM

**Q.** With CNC(=O)c1csc2c(C(F)(F)F)cc(N3CCC(OC(=O)N[C@H](C)CF)CC3)nc12 [Example 692, [1-[3-(Methylcarbamoyl)-7-(trifluoromethyl)thieno[3,2-b]pyridin-5-yl]-4-piperidyl] N-[(1R)-2-fluoro-1-methyl-ethyl]carbamate] as the compound, how does the IC50 read?
**A.** < 0.1 µM

**Q.** Which IC50 does the source give for CNC(=O)c1csc2c(C(F)(F)F)cc(OC3CC4COCC(C3)N4C(=O)OC(C)(C)C)nc12 (centres unmarked) [Example 750] here?
**A.** > 1 µM

**Q.** With CNC(=O)c1csc2c(C(F)(F)F)cc(O[C@H]3C[C@@H](OC(=O)NC4COC4)C3)nc12 [Example 822, (+/−)-cis-(1S,3S)-3-((3-(Methylcarbamoyl)-7-(trifluoromethyl)thieno[3,2-b]pyridin-5-yl)oxy)cyclobutyl oxetan-3-ylcarbamate] as the compound, how does the IC50 read?
**A.** 0.1 to 1 µM

**Q.** CNC(=O)c1csc2c(C(F)(F)F)cc(N3CC(Oc4cncc(F)c4)C3)nc12 [Example 190, 5-(3-((5-Fluoropyridin-3-yl)oxy)azetidin-1-yl)-N-methyl-7-(trifluoromethyl)thieno[3,2-b]pyridine-3-carboxamide] was tested. Which IC50 did it give?
**A.** 0.1 to 1 µM

**Q.** Which IC50 does the source give for CNC(=O)c1csc2c(C(F)(F)F)c(C)c(O[C@@H]3CCN(C(=O)O[C@@H](C)C4CC4)[C@H](C)C3)nc12 [Example 866, (S)-1-Cyclopropylethyl (2R,4R)-2-methyl-4-((6-methyl-3-(methylcarbamoyl)-7-(trifluoromethyl)thieno[3,2-b]pyridin-5-yl)oxy)piperidine-1-carboxylate] here?
**A.** < 0.1 µM

**Q.** Which IC50 does the source give for CNC(=O)c1csc2c(C(F)(F)F)cc(O[C@H]3CCN(C(=O)OC[C@@H](C)OC(F)(F)F)C3)nc12 [Example 858, (R)-2-(Trifluoromethoxy)propyl (S)-3-((3-(methylcarbamoyl)-7-(trifluoromethyl)thieno[3,2-b]pyridin-5-yl)oxy)pyrrolidine-1-carboxylate] here?
**A.** < 0.1 µM

**Q.** Which IC50 does the source give for CNC(=O)c1csc2c(C(F)(F)F)cc(O[C@@H]3CCN(C(=O)OC(C)(C)C)[C@H](C)C3)nc12 (racemic) [Example 370, (+/−)-tert-Butyl cis-2-methyl-4-((3-(methylcarbamoyl)-7-(trifluoromethyl)thieno[3,2-b]pyridin-5-yl)oxy)piperidine-1-carboxylate] here?
**A.** < 0.1 µM

**Q.** For COC(=O)c1csc2c(C(F)(F)F)cc(N3CCC(NC(=O)OC(C)(C)C)C3)nc12 (centres unmarked) [Example 659, Methyl 5-[3-(tert-butoxycarbonylamino)pyrrolidin-1-yl]-7-(trifluoromethyl)thieno[3,2-b]pyridine-3-carboxylate], which IC50 is on record?
**A.** 0.1 to 1 µM

**Q.** For CNC(=O)c1csc2c(C(F)(F)F)cc(O[C@H]3CCN(C(=O)NCC4CC4)C3)nc12 [Example 594, (S)-5-((1-((Cyclopropylmethyl)carbamoyl)pyrrolidin-3-yl)oxy)-N-methyl-7-(trifluoromethyl)thieno[3,2-b]pyridine-3-carboxamide], which IC50 is on record?
**A.** 0.1 to 1 µM

**Q.** For CNC(=O)c1csc2c(C(F)(F)F)cc(N3CCC(Oc4cccc(C)n4)CC3)nc12 [Example 145, N-Methyl-5-(4-((6-methylpyridin-2-yl)oxy)piperidin-1-yl)-7-(trifluoromethyl)thieno[3,2-b]pyridine-3-carboxamide], which IC50 is on record?
**A.** < 0.1 µM

**Q.** For [2H]C([2H])([2H])NC(=O)c1csc2c(C(F)(F)F)cc(N3CCC(OC(=O)NC4CC4)CC3)nc12 [Example 653, [1-[3-(Trideuteriomethylcarbamoyl)-7-(trifluoromethyl)thieno[3,2-b]pyridin-5-yl]-4-piperidyl] N-cyclopropylcarbamate], which IC50 is on record?
**A.** < 0.1 µM

**Q.** For CNC(=O)c1csc2c(C(F)(F)F)cc(OC3CCN(C(=O)OC4CN(C)CC4F)CC3)nc12 (centres unmarked) [Example 835, 4-Fluoro-1-methylpyrrolidin-3-yl 4-((3-(methylcarbamoyl)-7-(trifluoromethyl)thieno[3,2-b]pyridin-5-yl)oxy)piperidine-1-carboxylate], which IC50 is on record?
**A.** 0.1 to 1 µM

**Q.** How did the IC50 turn out when CC(C)NC(=O)O[C@H]1CCN(c2cc(C(F)(F)F)c3scc(C(=O)N4CCC4)c3n2)C[C@@H]1F (racemic) [Example 441, (+/−)-trans-1-(3-(Azetidine-1-carbonyl)-7-(trifluoromethyl)thieno[3,2-b]pyridin-5-yl)-3-fluoropiperidin-4-yl isopropylcarbamate] was run?
**A.** < 0.1 µM
